The source of these data is patent publication US8426429B2, “2-amino-quinazoline derivatives useful as inhibitors of β-secretase (BACE)” (Jansssen Pharmaceutica N.V., priority 2004, dated 2013).

Assay type in all cases: biochemical
In experiment [1] the target is T1, β-secretase (BACE) (Homo sapiens, UniProt P56817).
T1 construct: purchased Panvera
The experiment can be described thus: BACE Assay-1 (MCA-substrate, IC50). The settings on record: procedure of Example 158. The protocol:
The following standards are reagents were used in this assay: Sodium Citrate trisodium salt dihydrate (Sigma), Citric Acid monohydrate (Merck), PEG8000 (Sigma), MCA-substrate (Bachem), β-secretase (BACE) (Panvera), 96-well plate zwart (Costar (Elscolab)), StatVal (Bachem).
The following standard assay buffer solution was prepared and used in this assay: 0.05 M, pH 5.0 mixture of sodium citrate trisodium salt dihydrate (9.56 g), citric acid monohydrate (3.68 g) and PEG8000 (0.50 g).
The MCA-substrate stock solution was prepared by mixing 10 mg MCA-substrate with 5 mL DMSO for a final solution concentration of 2.0 mg/mL. The substrate work solution was prepared by mixing 0.1 mL substrate in 1.90 mL assay buffer for a final concentration of 0.05 mM. The β-secretase (BACE) work solution was prepared by mixing 8 μL BACE in 2 mL assay buffer for a final concentration of 10 µg/mL.
The screen procedure for this assay was as follows. 60 μL of assay buffer was pippeted into each well of a 96-well plate. To each well was then pipetted 1 μL of test compound at the selected concentration. To each well was then added 20 μL of the β-secretase work solution and […] of the MCA-substrate stock solution.
The procedure for the blank was as follows. 80 μL of assay buffer was pipetted into each well to be used as a blank control. To each well was then added 1 μL of DMSO and 20 μL of MCA-substrate solution in each well.
The procedure for the positive control was as follows. 60 μL of assay buffer was pipetted into each well to be used as a positive control. To each well was then added 1 μL of DMSO, 20 μL of BACE work solution and 20 μL of MCA-substrate stock solution.
For test compounds, measured at multiple concentrations, the measured T0 and T60 values were used to calculate an IC50 value using Graphpad Software (or PIR).

The target of experiment [2] is T1, β-secretase (BACE). The experiment can be described thus: BACE FS1 % Inhibition Assay. The settings on record: read-out: % Inhibition (FS). An outline of the steps:
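Percent inhibition per compound concentration was referenced to vehicle-treated enzyme and no-enzyme wells. Enzyme at a 4 μg/mL working stock plus compound was mixed for 20 min at room temperature before the FS1 substrate (300 μg/mL working stock) was added for a 1 h room-temperature reaction.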

Experiment [3] deals with T1, β-secretase (BACE). Kind of experiment: BACE Assay-2 (FS1 substrate, IC50 and Ki). The settings on record: procedure of Example 159, FS1 substrate. The protocol: The FS1-substrate stock solution was prepared in DMSO as a 10 mg/mL solution. The FS1-substrate working solution was prepared by diluting the 10 mg/mL stock solution with substrate assay buffer to a final concentration of […]. The β-secretase (BACE) working solution was prepared by diluting a 0.83 mg/mL BACE stock solution with enzyme assay buffer to a final concentration of 4 μg/mL.
Test compounds were dissolved in DMSO at 10 mM.
The procedure for this assay was as follows: 15 μL of BACE working solution was pipetted into each well of a 96-well plate. To each well was then pipetted 2 μL of test compound at the selected concentration. Test compound and BACE were then mixed with a pipettor and incubated for 20 min at room temperature. To each well was then added 10 μL of the FS1 substrate working solution.
The procedure for the positive control was as follows:15 μL of BACE working solution was pipetted into each well to be used as a positive control. To each well was then pipetted 2 μL of vehicle. Vehicle and BACE were then mixed with a pipettor and incubated for 20 min at room temperature. To each well was then added 10 μL of the FS1 substrate working solution.
For test compounds, measured at multiple concentrations, the measured T0 and T60 values were used to calculate an IC50 value using Graphpad Software (or PIR). For test compounds, Ki inhibition was determined as follows: For each compound concentration and positive control, rate of cleavage of substrate (Vi, where i=compound concentration in μM) was determined as Δ Fluorescence/Δ time (min). Cleavage rates (Vi) were plotted as a function of inhibitor concentration in μM [I]. The Ki was then determined by fitting the following equation to the graph of [I] vs Vi Y=aVmax/(50+24*(1+X/Ki)),

Experiment [4] deals with T1, β-secretase (BACE). The experiment can be described thus: BACE % Inhibition Assay ((Aedens)-[…]-(Dabcyl K-amide) substrate). The settings on record: % error ±10%. The method, then: The substrate stock solution was prepared in DMSO as a 10 mg/mL solution. The substrate working solution was prepared by diluting the 10 mg/mL stock solution with substrate assay buffer to a final concentration of […]. The β-secretase (BACE) working solution was prepared by diluting a 0.83 mg/mL BACE stock solution with enzyme assay buffer to a final concentration of 4 μg/mL.
Test compounds were dissolved in DMSO to 10 mM.
The screening procedure for this assay was as follows: 15 μL of BACE working solution was pipetted into each well of a 96-well plate. To each well was then pipetted 2 μL of test compound at the selected concentration. Test compound and BACE were then mixed with a pipettor and incubated for 20 min at room temperature. To each well was then added 10 μL of the substrate working solution. The plates were then incubated for 1 hour at room temperature.
The procedure for the blank was as follows. 15 μL of assay buffer was pipetted into each well to be used as a blank control. To each well was then added 2 μL of vehicle and 10 μL of substrate working solution. The plates were then incubated for 1 hour at room temperature.
The procedure for the positive control was as follows: 15 μl of BACE working solution was pipetted into each well to be used as a positive control. To each well was then pipetted 2 μL of vehicle. Vehicle and BACE were then mixed with a pipettor and incubated for 20 min at room temperature. To each well was then added 10 μL of the substrate working solution. The plates were the incubated for 1 hour at room temperature.
For test compounds, % inhibition was determined at each concentration as follows: […]

The IC50 is the concentration at which inhibition is half-maximal. The term inhibition denotes the relative decrease from the control value, in per cent. What is called Ki is a measure of affinity in units of concentration, obtained from inhibition or displacement. A higher Ki goes with lower affinity. The % Inhibition is the drop in the measured response relative to a control, in per cent.

Each structure is given as a SMILES string. Read-outs that look alike come from different tables or passages of the source. Bounds are passed on as bounds.

T1 sequence (P56817 46-501): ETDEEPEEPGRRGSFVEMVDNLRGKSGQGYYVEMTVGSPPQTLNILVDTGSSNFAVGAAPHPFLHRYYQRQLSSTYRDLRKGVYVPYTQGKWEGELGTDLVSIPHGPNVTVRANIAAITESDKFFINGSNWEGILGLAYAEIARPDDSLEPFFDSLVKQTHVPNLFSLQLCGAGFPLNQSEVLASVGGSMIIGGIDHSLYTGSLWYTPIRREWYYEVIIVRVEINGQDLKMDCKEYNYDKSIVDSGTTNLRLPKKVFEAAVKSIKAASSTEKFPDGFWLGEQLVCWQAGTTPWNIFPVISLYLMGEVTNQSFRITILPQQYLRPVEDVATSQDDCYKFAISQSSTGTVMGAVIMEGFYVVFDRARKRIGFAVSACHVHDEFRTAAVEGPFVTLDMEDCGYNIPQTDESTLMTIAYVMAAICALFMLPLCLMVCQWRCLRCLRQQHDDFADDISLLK

As to `CN(C(=O)CCCN1Cc2cc(C(=O)c3ccccc3)ccc2N=C1N)C1CCCCC1` [Compound 10], it took 3.7 µM to reach half-maximal inhibition on β-secretase (BACE) [1] (IC50).

For the molecule `CN(C(=O)c1cccc(CN2Cc3cc(-c4ccccc4Oc4ccccc4)ccc3N=C2N)c1)C1CCCCC1` [Compound 326], at β-secretase (BACE) [2] (0.3 μM test compound), the inhibition at 0.3 µM is less than 30%. The inhibition at 1 µM at β-secretase (BACE) [2] (1 μM test compound) worked out at 35%. The inhibition at 3 µM at β-secretase (BACE) [2] (3 μM test compound) is 79%. The molecule also yielded a Ki on β-secretase (BACE) [3] of 0.42 µM.

With `CCCN1Cc2cc(Oc3cccc(CNC(=O)c4c(C)cc(C)cc4C)c3)ccc2N=C1N` [Compound 533], at β-secretase (BACE) [1], the IC50 is 0.17 µM.

Take `NC1=Nc2ccc(Oc3ccccc3)cc2CN1C(CNC(=O)C1CCCC1)C1CCCCC1` (stereo not shown) [Compound 295]: the inhibition at 0.3 µM at β-secretase (BACE) [2] (0.3 μM test compound) came out at 79%. Further, the inhibition at 1 µM at β-secretase (BACE) [2] (1 μM test compound) is 106%. In addition, the inhibition at 3 µM at β-secretase (BACE) [2] (3 μM test compound) came to 116%. In addition, the concentration for half-maximal inhibition (IC50) against β-secretase (BACE) [1] was 0.016 µM. The molecule also had an inhibition constant (Ki) at β-secretase (BACE) [3] of 0.03 µM.

`CCCN1Cc2cc(Oc3cccc(CNCc4cccc(O)c4)c3)ccc2N=C1N` [Compound 305]: the IC50 at β-secretase (BACE) [1] was 1.4 µM. In other words, the single-digit micromolar range.

`CN(C(=O)CC[C@@H](C1CCCCC1)N1Cc2cc(Oc3ccccc3)ccc2N=C1N)C1CCC2(CC1)OCCO2` [Compound 710]: at β-secretase (BACE) [2] (0.3 μM compound, FS1 substrate), the inhibition at 0.3 µM is less than 30%. Also, on β-secretase (BACE) [2] (1 μM compound, FS1 substrate), the inhibition at 1 µM was found to be 68%. The inhibition at 3 µM on β-secretase (BACE) [2] (3 μM compound, FS1 substrate) was determined as 126%. On β-secretase (BACE) [3], this molecule returned a Ki of 0.3 µM.

Regarding `CCCN1Cc2cc(Oc3cccc(CNCCCc4ccccc4)c3)ccc2N=C1N` [Compound 430], inhibition at β-secretase (BACE) [1] was half-maximal at 2.8 µM (IC50).

For the molecule `NC1=Nc2ccc(-c3ccccc3)cc2CN1CCNC(=O)Cc1ccccc1` [Compound 595], the inhibition at 0.3 µM on β-secretase (BACE) [2] (0.3 μM test compound) worked out at 32%. The inhibition at 1 µM on β-secretase (BACE) [2] (1 μM test compound) came out at 70%. The inhibition at 3 µM on β-secretase (BACE) [2] (3 μM test compound) came to 104%. The molecule further yielded a Ki at β-secretase (BACE) [3] of 0.33 µM.

Regarding `CC(C)C(CNC(=O)C12CC3CC(CC(C3)C1)C2)N1Cc2cc(Oc3ccccc3)ccc2N=C1N` (stereo not shown) [Compound 562], the inhibition at 0.3 µM at β-secretase (BACE) [2] (0.3 μM test compound) amounted to 106%. On β-secretase (BACE) [2] (1 μM test compound), the inhibition at 1 µM was 118%. For the same molecule, at β-secretase (BACE) [2] (3 μM test compound), the inhibition at 3 µM is 128%. This molecule also came in with a Ki on β-secretase (BACE) [3] of 0.026 µM.

At β-secretase (BACE) [1], `CCCN1Cc2cc(Oc3cccc(CNS(=O)(=O)c4ccccc4)c3)ccc2N=C1N` [Compound 225] showed an IC50 of 2.9 µM.

`COC(=O)[C@H]1CC[C@H](NC(=O)CC[C@@H](C2CCOCC2)N2Cc3cc(Oc4ccccc4)ccc3N=C2N)CC1` [Compound 747]: on β-secretase (BACE) [2] (0.3 μM compound, FS1 substrate), the inhibition at 0.3 µM is 41%. The inhibition at 1 µM on β-secretase (BACE) [2] (1 μM compound, FS1 substrate) is 74%. The inhibition at 3 µM on β-secretase (BACE) [2] (3 μM compound, FS1 substrate) came out at 104%. On β-secretase (BACE) [3], this molecule came in with a Ki of 0.088 µM.

Take `CCCCC(CC)C(=O)NCC(c1ccccc1)N1Cc2cc(Oc3ccccc3)ccc2N=C1N` (stereo not shown) [Compound 341]: the “% Inhibition” value is less than 30% at β-secretase (BACE) [4] (0.3 μM compound), less than 30% on β-secretase (BACE) [4] (1 μM compound) and 72% on β-secretase (BACE) [4] (3 μM compound).

In turn, `CCCN1Cc2cc(Oc3cccc(CN(C)Cc4c(C)cc(C)cc4C)c3)ccc2N=C1N` [Compound 464] had an IC50 against β-secretase (BACE) [1] of 1.3 µM.
